Reference: US20250082603A1, “OPHTHALMIC COMPOSITION CONTAINING RECOFLAVONE FOR THE TREATMENT OF DRY EYE DISEASE AND METHOD FOR PREPARING THE SAME” (GL PHARMTECH CORP., priority 2021, published 2025)
Where two headings read alike, the source gives them in different places.

How the values were obtained:
[1] = Dissolved state of recoflavone in sodium hydroxide aqueous solution; assay type: physicochemical
Procedure: When recoflavone is not dissolved in purified water, in (S1) step, sodium hydroxide as an alkalizing agent is added in an amount of not less than 1.05 which is the ratio of molar concentration to that of recoflavone. Here, the ratio of molar concentration is expressed as a value by dividing the molar concentration of sodium hydroxide by the molar concentration of recoflavone contained in the ophthalmic composition.
Specifically, (S1) step is a process where sodium hydroxide is added to purified water to prepare an aqueous solution having a molar concentration of not more than 0.16 M or not less than 0.19 M, and then recoflavone is added. Recoflavone can be dissolved transparently through the above process.
The molar concentration of sodium hydroxide is calculated in the above dissolving process not in the final volume of the manufacturing process. […] Therefore an ophthalmic composition cannot be prepared efficiently. The corresponding contents will be described in details with reference to Tables 1, 2 and FIG. 9 below.

[2] = Solubility of recoflavone in water and its pH dependence; assay type: physicochemical
Text: (§1) It has a property with low solubility at low pH. As the pH increases, it is ionized and its solubility increases.
In general, an ophthalmic composition is preferably prepared in a transparent solution state in consideration of the feeling of use in eyes and the efficient absorption of the drug. […] Therefore, if recoflavone is not dissolved in purified water for an ophthalmic composition, a transparent solution may be prepared through (S1) step.

[3] = Cell permeability of dissolved recoflavone; assay type: in vitro ADME; conditions: high degree of ionization
Text: as §1

[4] = Drug distribution in each tissue of eye after 3% eye drop administered to rabbit eyes; assay type: in vivo; conditions: data not shown
Text: as §1

[5] = tested on: human keratoconjunctival epithelial cells; conditions: cited from earlier work
[6] = cited from earlier work
[7] = human keratoconjunctival epithelial cells

COc1ccc(-c2cc(=O)c3c(OC)cc(OCC(=O)O)cc3o2)cc1OC [recoflavone monohydrate]
Dissolved state ([1]; molar concentration ratio 0.93, NaOH 0.196 M, recoflavone monohydrate 0.211 M): Not transparent | Dissolved state ([1]; molar concentration ratio 0.97, NaOH 0.196 M, recoflavone monohydrate 0.201 M): Not transparent | Dissolved state ([1]; molar concentration ratio 1.00, NaOH 0.196 M, recoflavone monohydrate 0.196 M): Not transparent | Dissolved state ([1]; molar concentration ratio 1.05, NaOH 0.194 M, recoflavone monohydrate 0.184 M): Transparent | Dissolved state ([1]; molar concentration ratio 1.06, NaOH 0.203 M, recoflavone monohydrate 0.192 M): Transparent

COc1ccc(-c2cc(=O)c3c(OC)cc(OCC(=O)O)cc3o2)cc1OC [recoflavone, 2-((2-(3,4-dimethoxyphenyl)-5-methoxy-4-oxo-4H-chromen-7-yl)oxy) acetic acid]
solubility at low pH ([2]; low pH): low | solubility in water ([2]; water): practically insoluble | cell permeability [3]: poor | drug concentration in the cornea [4]: high immediately after the administration, but it was rapidly decreased over time | drug distribution in each tissue of eye with time [4]: rarely distributed in the tissues located inside the eye and mainly distributed in the surrounding tissues outside of the eye | Dissolved state of recoflavone ([1]; NaOH aqueous solution out of the range of not more than 0.16 M or not less than 0.19 M, stirring for several hours): not dissolved transparently | Dissolved state of recoflavone ([1]; final volume 40 L, recoflavone 5% (w/v), NaOH 0.196 M, purified water 28,000 mL, ratio 1.05~1.06): Transparent | Dissolved state of recoflavone ([1]; final volume 70 L, recoflavone 5% (w/v), NaOH 0.196 M, purified water 49,000 mL, ratio 1.05~1.06): Transparent | Dissolved state of recoflavone ([1]; final volume 100 mL, recoflavone 3% (w/v), NaOH 0.086 M, purified water 90 mL, ratio 1.05): Transparent | Dissolved state of recoflavone ([1]; final volume 100 mL, recoflavone 3% (w/v), NaOH 0.097 M, purified water 80 mL): Transparent | Dissolved state of recoflavone ([1]; final volume 100 mL, recoflavone 3% (w/v), NaOH 0.111 M, purified water 70 mL): Transparent | Dissolved state of recoflavone ([1]; final volume 100 mL, recoflavone 5% (w/v), NaOH 0.137 M, purified water 100 mL, ratio 1.05): Transparent | Dissolved state of recoflavone ([1]; final volume 100 mL, recoflavone 5% (w/v), NaOH 0.152 M, purified water 90 mL): Transparent | Dissolved state of recoflavone ([1]; final volume 100 mL, recoflavone 5% (w/v), NaOH 0.196 M, purified water 70 mL): Transparent | Dissolved state of recoflavone ([1]; final volume 100 mL, recoflavone 5% (w/v), NaOH 0.392 M, purified water 70 mL): Transparent | Dissolved state of recoflavone ([1]; final volume 100 mL, recoflavone 6% (w/v), NaOH 0.204 M, purified water 80 mL): Transparent | Dissolved state of recoflavone ([1]; final volume 100 mL, recoflavone 6% (w/v), NaOH 0.233 M, purified water 70 mL): Transparent | Dissolved state of recoflavone ([1]; final volume 100 mL, recoflavone 6% (w/v), NaOH 0.466 M, purified water 70 mL): Transparent | Dissolved state of recoflavone ([1]; final volume 100 mL, recoflavone 7% (w/v), NaOH 0.195 M, purified water 100 mL, ratio 1.05): Transparent | Dissolved state of recoflavone ([1]; final volume 100 mL, recoflavone 7% (w/v), NaOH 0.279 M, purified water 70 mL): Transparent | Dissolved state of recoflavone ([1]; final volume 100 mL, recoflavone 7% (w/v), NaOH 0.558 M, purified water 70 mL): Transparent | thickness of the mucin layer ([5]; 100 μM solution): significantly increased | MUC1, MUC4, MUC16 and MUC5AC by real-time PCR [5, 7]: tendency to increase significantly for four hours and then decreased rapidly | mucin proteins by Western blot analysis [5, 7]: MUC5AC only had a tendency to increase and the others did not | hygroscopicity ([6]; form of a hydrate): stable without hygroscopicity | hygroscopicity ([6]; form of an anhydride): has hygroscopicity
